Results: US20240335395A1, “COMPOSITIONS AND METHODS FOR PREVENTING AND/OR TREATING DISEASE ASSOCIATED WITH IL-23 EXPRESSION” (ALLSPIM, priority 2021, published 2024)

Assays:
[1] = system: Balb/c to C57BL/6 skin graft; test: Balb/c to C57BL/6 full-thickness skin graft survival; format: in vivo, mouse; details: oral, bid
Procedure: Skin transplantation. Murine full-thickness allo-skin transplantation to study graft rejection was conducted according to a previously well-described protocol (Cheng et al, 2017). All procedures were conducted in accordance with the Guide for the Care and Use of Laboratory Animals of the National Institute of Health (NIH) and were approved by the animal ethics committee of Guangzhou University of Chinese Medicine.
Briefly, donor mice (Balb/c) were anesthetized with isoflurane (induction vaporizer at 4%, maintenance at 1-2% through the mouse cone). The toe pinch withdrawal reflex was used to monitor the depth of anesthesia. The back of the animal was shaved with an electric razor and disinfected with 10% povidone iodine. Using sterile scissors, gloves, and aseptic technique, donor back skin was harvested from the hip to the neck with blunt dissection at the level of the areolar connective tissue. After harvesting the skin graft, the animal was euthanized by cervical dislocation. Under a microscope, the connective tissue, fat tissue, and panniculus carnosus were separated from the back skin using fine tenotomy scissors. Using sterile technique, 15-mm×15-mm grafts were cut out from the back skin for a 10-mm×10-mm to 15-mm×15-mm graft bed (10 grafts were obtained from one donor mouse). The grafts were stored on gauze soaked with sterile phosphate-buffered saline (PBS) in a petri dish on ice.
The recipient mice (C57BL/6) were anesthetized with isoflurane. Buprenorphine (0.02 mg/kg) was administrated for postoperative pain relief. The side of the back of the animal where the graft will be inserted was shaved and disinfected with 10% povidone iodine. A 10-mm×10-mm to 15-mm×15-mm square of skin was intersected using scissors. The defect size was slightly larger (10%) than the graft. The graft was positioned on the graft bed avoiding folds along the edges. Eight sutures were placed on the corners and on the middle of each edge. […] When the graft was considered as successful, it was then monitored daily for signs of rejection. […]

IL-23 = IL-23 production (ELISA) in LPS-stimulated THP-1 cells, 2,4-D versus other chalcones, Example 2; format: cell-based, human; details: LPS-stimulated THP-1
Excerpt: Molecules tested. Natural 2,4-D, isolated and purified from Chloranthus spicatus (purity HPLC≥98%, Cat. No.: 129742-43-2), was purchased from BOC Science (Shirley, NY). Synthetic 2,4-D (purity HPLC≥98%) was obtained from YIWEI Biotech (Shanghai, China). 2′-hydroxychalcone (2′-HC, purity HPLC≥98%, Cat. No.: 42224-53-3), 4-hydroxychlcone (4-HC, purity HPLC≥98%, Cat. No.: 20426-12-4), 2′,2-dihydroxychalcone (2′,2-DHC, purity HPLC≥98%, Cat. No.: IDF00045_ALDRICH), 2′,3-dihydroxychalcone (2′,3-DHC, purity HPLC≥98%, Cat No.: IDF00047_ALDRICH), 2′,4-dihydroxychalcone (2′,4-DHC, purity HPLC≥98%, Cat. No.: PH011685_ALDRICH), 2′,5′-dihydroxychalcone (2′,5′-DHC, purity HPLC≥98%, No.: IDF00046-1G), and 2′,4′,4-trihydroxychalcone (2′,4′4-THC, purity HPLC≥98%, No.: 38986_SIAL) were purchased from Sigma. 2′,4′-dihydroxychalcone (2′,4′-DHC, purity HPLC≥98%, Cat. No. AB151736) was purchased from abcr GmbH (Karlsruhe, Germany). Isobavachalcone (IBC), 4′-hydroxy-2′6′-dimethoxychalcone (HMC), 2-trifluoromethyl-2′-methoxychalcone (TFM) and Hydroxysafflor yellow A (HYA) were also tested.
Cell culture. THP-1 cells were cultured in RPMI 1640 culture medium (Gibco) supplemented with 10% fetal bovine serum (FBS; Gibco, UK.), 0.05 mM 2-mercaptoethanol, and 1% penicillin/streptomycin. Cells were used in exponential growth phase, with culture medium being replaced with fresh medium 1 day prior to the experiment. The following day, THP-1 cells were plated into 24-well culture plates with a cell density about 800,000 cells/mL and 2 mL per well. 10 ng/mL LPS was used to stimulate the THP-1 cells. RPMI 1640 medium containing 10% FBS and 1% P/S was used as a normal control (NC). 10 mM stock solutions of compounds in DMSO were diluted to 20 μM with complete culture medium just before use. Experiments were performed in quadruplicate.
Enzyme linked immune-sorbent assay (ELISA). At 24 hours, after centrifugation at 300 g for 10 min., 0.5 mL of supernatant was collected and stored at −80° C. until use. IL-23 levels were determined in culture supernatants as described in Example 1.

[2] = system: collagen induced arthritis (CIA) in DBA/1 mice; test: Collagen induced arthritis (CIA) in DBA/1 mice, clinical score; format: in vivo, mouse; details: for decrease of mean clinical score compared with control group: as from day 5 post-treatment
Excerpt: Induction of collagen induced arthritis (CIA) in DBA/1 mice treated with oral 2,4-D. Forty DBA/1 mice (8-12 weeks of age; 20 males and 20 females) were obtained from the Center for Experimental Animals in Beijing, China. The CIA model was established according to the standard Hooke Protocol (accessible at https://hookelabs.com/protocols/cialnduction_DBA1.html). Complete Freund's adjuvant (CFA) and incomplete Freund's adjuvant (IFA) were purchased from Hooke Laboratories. 35 days after immunization, the 40 immunized mice were distributed randomly into 4 groups (10 controls, 10 treated with 0.2 mg daily oral 2,4-D, 10 treated with 1 mg daily oral 2,4-D for 15 days). All animals were followed for an additional 15 days post-treatment.
CIA scoring. CIA is scored on a scale of 0 to 16 (0 to 4 for each paw, adding the scores for all 4 paws), using the following criteria:
Statistical analysis. Data are presented as the mean±SEM for the in vivo animal study. Statistical analysis was performed using Student's t-test (paired 2-sample testing).

SMILES: COc1cc(O)c(OC)c(O)c1C(=O)/C=C/c1ccccc1 [2,4-D, 2′,4′-dihydroxy-3′,6′-dimethoxychalcone]
- median graft survival ([1]; 2 mg/kg): 15 days
- median graft survival ([1]; 10 mg/kg): 19 days
- median graft survival ([1]; 50 mg/kg): 24 days
- inhibition of IL-23, superiority over remaining compounds (IL-23): 7,5- to 18 fold
- decrease of mean clinical score compared with control group ([2]; high dose 1 mg per day oral): 2- to 7 fold
- suppression of CIA after withdrawal of treatment ([2]; high dose, 15 days after withdrawal): maintained
- decrease of mean clinical score compared with control group ([2]; low dose 0.2 mg per day oral): 2- to 3 fold
